The values below are quoted from earlier work in publication PMC8448162, “Single- and Multiple-Ascending-Dose Study of the Safety, Tolerability, and Pharmacokinetics of the Polymyxin Derivative SPR206” (Antimicrobial Agents and Chemotherapy, 2021).

Positions of bridges follow the written chain, without caps; N, C: chain ends. Non-standard residues stand in square brackets, D forms with d. Residues, ends and D or L forms follow the SMILES beside them. *: point of attachment. X1 = NC[C@@H](CC(=O)*)c1cccc(Cl)c1; Dab = NCC[C@H](N)C(=O)O; Dap = NC[C@H](N)C(=O)O

The conditions of data set [1]: human; cited from earlier work.
The next data set concerns kidney cell. The note with it: cited from earlier work.

As for `CC(C)C[C@@H]1NC(=O)[C@@H](Cc2ccccc2)NC(=O)[C@H](CCN)NC(=O)[C@@H](NC(=O)[C@H](CN)NC(=O)[C@@H](NC(=O)C[C@H](CN)c2cccc(Cl)c2)[C@@H](C)O)CCNC(=O)[C@H]([C@@H](C)O)NC(=O)[C@H](CCN)NC(=O)[C@H](CCN)NC1=O` [SPR206] (X1-T[Dap][Dab][Dab][dF]L[Dab][Dab]T; lactam 3-C (inferred)), the protein binding in data set [1] is under 21%. Further, the “kidney cell cytotoxicity compared with PMB” value in the data set with kidney cell is on record as “lower kidney cell cytotoxicity”.
